# Source: patent US20250082624A1, “METHODS OF TREATING COGNITIVE IMPAIRMENT” (NeuroTherapia, Inc., priority 2023, published 2025)
# “And” between values parts separate entries of the source, which are not always exact repeats. Identical values can stand only once. “Also recorded” adds a separate entry of the source.
# Tests used:
# [1] = test system: volunteers and AD patients; experiment: Orthostatic blood pressure and vertigo tests (timed get-up and go, Nystagmus test, Romberg test); type: in vivo, human; settings: Phase 1b
# Description: (§1) Assessments: Subjects were assessed for changes in vital signs, orthostatic blood pressure, Romberg test, nystagmus, timed get up and go, electrocardiograms, electroencephalograms (EEG), and laboratory studies. Subjective questionnaires of drug effects (ARCI-M) were administered. Cohort B returned and received a single repeat dose after a standard high-fat meal. The AD cohort also underwent cognitive testing (MMSE, ADAS-COG, MOCA) and had blood samples for biomarkers drawn.
# (§2) An informational letter was filed with the FDA to inform them of this study. The study was designed as follows: • 3 healthy cohorts (cohorts A-C) followed by AD cohort (cohort D) treated at MTD • 6 treated, 2 placebos in each cohort • Doses: 10, 30, 90 mg/treatment—latter doses can be adjusted based on PK assessment • In unit, 7 days of treatment • Monitor vertigo with various tests: (1) timed get-up and go, (2) Nystagmus test, (3) Romberg test, and (4) changes in orthostatic blood pressure (Day 1, 3 and 8) • Use 24 hr EEG monitoring for CNS safety assessment • Assess plasma biomarkers of inflammation and AD pre- and post-treatment in AD cohort • Assess changes on cognition post-treatment using MMSE and ADAS-cog • Fed/fasted study to determine food effects on PK as a subset of the Phase 1b
# [2] = test system: AD cohort; experiment: Cognitive testing ADAS-COG in AD cohort; type: in vivo, human; settings: 90 mg QD 7 days
# Source text: (§3) Methods: All study procedures were approved by the IRB, and informed consent was obtained. Three cohorts of volunteers 45-80 years of age with well-controlled comorbidities (NOAD) and one cohort of AD patients diagnosed with cognitive impairment consistent with prodromal AD per International Working Group criteria or mild AD per National Institute on Aging—Alzheimer's Association criteria (n=6 active, 2 placebo per cohort) were enrolled. Participants were admitted to the study site for the duration of the dosing and returned 7-12 days after the last dose for a safety visit. Participants received NTRX-07 (10, 30, or 90 mg) or a placebo in a double-blinded randomization orally once daily for seven days. Subjects were assessed for changes in vital signs, including maneuvers to induce lightheadedness, electrocardiograms, 24-hour electroencephalograms (EEG), and safety laboratory studies. The second cohort returned and received a single repeat dose after a standard high-fat meal. The AD cohort also underwent cognitive testing and had blood samples for biomarkers drawn. Subjects had PK sampling done after the first and final dose of the study drug. An independent safety review committee conducted a blinded safety review of adverse events and plasma levels between each cohort.
# as §1
# (§4) Exploratory endpoints include cognitive testing and potential plasma biomarkers of inflammation. The small group size (6 on treatment, 2 placebo) precludes statistical analysis, but the goals were to gain insights for future study design. Exploratory endpoints include: • MMSE, MOCA & ADAS-COG • IL-12p70, IL-10, IL-4, IL-5, INFg, IL-6, IL-8, IL-22, TNFa, IL-10, hCRP, Chitinase-3, TREM-2, IL-2, Neurogranin, Total Tau, AB42, AB40, NF-LIGHT, pTau-181
# [3] = test system: plasma biomarkers of inflammation; experiment: Plasma biomarkers of inflammation and AD in AD cohort; type: in vivo, human; settings: for AB40 Median / AB42 Median / Chitinase-3 Median / IL-1β Median / IL-2 Median / IL-4 Median / IL-5 Median / IL-6 Median / IL-8 Median / IL-10 Median / IL-12p70 Median / IL-22 Median / INFg Median / NF-LIGHT Median / Neurogranin Median / TNFa Median / TREM-2 Median / Total Tau Median / hCRP Median / pTau-181 Median: plasma
# Source text: as §3, §1, §2, §4
# [4] = test system: dogs; experiment: Dog toxicity (CNS safety issue raised by FDA); type: in vivo; settings: 200 mg/kg/day
# [5] = test system: healthy volunteers; experiment: Phase 1a single ascending dose study; type: in vivo, human
# [6] = test system: volunteers and AD patients; experiment: 24-hour EEG safety assessment and post-hoc qEEG analysis; type: in vivo, human; settings: AD patients, 90 mg QD 7 days, post hoc exploratory
# Description: Protocol-specified EEG assessments were for safety assessment of any potential epileptogenic changes. A post-hoc analysis of quantitative EEG (qEEG) changes was also performed.
# as §2
# No subjects had clinically meaningful abnormal values or changes from baseline, nor differences between placebo and active drug, in EEG readings in any of the 4 cohorts.
# [7] = test system: healthy volunteers; settings: cited from earlier work
# [8] = test system: APP/PS1 mouse model of AD; settings: cited from earlier work
# [9] = after 7 days of 90 mg QD, Day 8
smiles,measurement,setting,value
"CC1(Cc2ccccc2)COc2cc(C(=O)N3CCCCC3)ccc21 (stereo not drawn) [NTRX-07, 3-benzyl-3-methyl-2,3-dihydrobenzofuran-6-carboxylic acid-piperidine amide]",Orthostatic events observed during trial: Severity,"[1]; individual subjects on NTRX-07 (Cohort B 30 mg, C and D 90 mg QD)",Mild
same,Primary side effect observed,[1]; usually with early doses,mild transient orthostatic changes in blood pressure
same,Orthostasis: Incidences,[1]; treated subjects,16.7%
same,Orthostasis: Subjects who had an incident,[1]; treated subjects,16.7%
same,ADAS-COG Mean (StdDev),[2]; Day 8,12.72 (1.56)
same,ADAS-COG,"[2]; Day 8, individual subjects",11.00 and 15.33 and 11.67 and 12.67 and 12.00 and 13.67
same,ADAS-COG Mean (StdDev),[2]; Day −2 (baseline),17.50 (2.83)
same,ADAS-COG,"[2]; Day −2 (baseline), individual subjects",17.00 and 18.33 and 13.33 and 22.00 and 18.00 and 16.33
same,ADAS-COG Mean (StdDev),[2]; EOS Day 14-19,13.17 (3.46)
same,ADAS-COG,"[2]; EOS Visit (Day 14-19), individual subjects",9.33 and 19.33 and 11.00 and 12.00 and 13.00 and 14.33
same,ADAS-COG trend,[2]; immediately post-treatment,Trend toward improvement
same,Changes in plasma biomarkers,[3]; 90 mg QD 7 days,No significant changes in biomarkers or plasma biomarkers; also recorded: no consistent changes
same,AB40 Median,"[3]; 90 mg QD, Day 1 (baseline)",232.84 pg/mL
same,AB42 Median,"[3]; 90 mg QD, Day 1 (baseline)",8.29 pg/mL
same,Chitinase-3 Median,"[3]; 90 mg QD, Day 1 (baseline)",43668.33 pg/mL
same,IL-1β Median,"[3]; 90 mg QD, Day 1 (baseline)",0.13 pg/mL
same,IL-2 Median,"[3]; 90 mg QD, Day 1 (baseline)",0.16 pg/mL
same,IL-4 Median,"[3]; 90 mg QD, Day 1 (baseline)",1.38 pg/mL
same,IL-5 Median,"[3]; 90 mg QD, Day 1 (baseline)",0.17 pg/mL
same,IL-6 Median,"[3]; 90 mg QD, Day 1 (baseline)",2.19 pg/mL
same,IL-8 Median,"[3]; 90 mg QD, Day 1 (baseline)",7.65 pg/mL
same,IL-10 Median,"[3]; 90 mg QD, Day 1 (baseline)",0.35 pg/mL
same,IL-12p70 Median,"[3]; 90 mg QD, Day 1 (baseline)",0.34 pg/mL
same,IL-22 Median,"[3]; 90 mg QD, Day 1 (baseline)",0.9 pg/mL
same,INFg Median,"[3]; 90 mg QD, Day 1 (baseline)",0.08 pg/mL
same,NF-LIGHT Median,"[3]; 90 mg QD, Day 1 (baseline)",18.24 pg/mL
same,Neurogranin Median,"[3]; 90 mg QD, Day 1 (baseline)",671.19 pg/mL
same,TNFa Median,"[3]; 90 mg QD, Day 1 (baseline)",0.69 pg/mL
same,TREM-2 Median,"[3]; 90 mg QD, Day 1 (baseline)",38468.67 pg/mL
same,Total Tau Median,"[3]; 90 mg QD, Day 1 (baseline)",2.07 pg/mL
same,hCRP Median,"[3]; 90 mg QD, Day 1 (baseline)",4135.17 ng/mL
same,pTau-181 Median,"[3]; 90 mg QD, Day 1 (baseline)",21.53 pg/ml
same,AB40 Median,[3]; [9],226.52 pg/mL
same,AB42 Median,[3]; [9],8.57 pg/mL
same,Chitinase-3 Median,[3]; [9],40345.17 pg/mL
same,IL-1β Median,[3]; [9],0.11 pg/mL
same,IL-2 Median,[3]; [9],0 pg/mL
same,IL-4 Median,[3]; [9],1.14 pg/mL
same,IL-5 Median,[3]; [9],0.19 pg/mL
same,IL-6 Median,[3]; [9],2.44 pg/mL
same,IL-8 Median,[3]; [9],10.41 pg/mL
same,IL-10 Median,[3]; [9],0.38 pg/mL
same,IL-12p70 Median,[3]; [9],0.33 pg/mL
same,IL-22 Median,[3]; [9],0.87 pg/mL
same,INFg Median,[3]; [9],0.08 pg/mL
same,NF-LIGHT Median,[3]; [9],18.49 pg/mL
same,Neurogranin Median,[3]; [9],881.02 pg/mL
same,TNFa Median,[3]; [9],0.83 pg/mL
same,TREM-2 Median,[3]; [9],39576.17 pg/mL
same,Total Tau Median,[3]; [9],2.03 pg/mL
same,hCRP Median,[3]; [9],4211.88 ng/mL
same,pTau-181 Median,[3]; [9],20.16 pg/ml
same,Seizures,[4],Seizures in 1 or 2 dogs
same,No adverse events level,[5]; Phase 1a single ascending dose,2 mg/kg
same,Adverse events in Phase 1a,[5]; single ascending dose,"Only minor, non-dose limiting adverse events"
same,qEEG mean frequency (AD effect),[6],treatment partially reversed this AD effect; also recorded: Trend towards improvement; also recorded: partial reversion of AD effect; also recorded: increasing mean frequency
same,Adverse effect at high doses,[7]; single doses of 3.5 and 4 mg/kg,transient lightheadedness
same,Major adverse effects,"[7]; single doses up to 2 mg/kg, healthy volunteers",no major adverse effects
same,Clearance of Aβ,"[8]; AD models, FIG. 4",improved clearance of A-beta proteins; also recorded: increases clearance of Aβ
same,Aβ plaque clearance,"[8]; APP/PS1 (Tg(APPswe,PSEN1dE9)85Dbo) mouse, FIG. 5",promotes Aβ plaque clearance
same,CB2 increase / Iba1 colocalization in microglia (microglial activation),"[8]; APP/PS1 mouse model of AD, FIG. 3",returned towards baseline
same,Inflammatory changes in the brain,[8]; preclinical AD models,decreased inflammatory changes in the brain
same,Long-term potentiation,[8]; preclinical AD models,improved long-term potentiation
